PubChem BioAssay (NCI)
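How tested: cells in 96-well plates exposed to compound for 48 hours at five concentrations. GI50 = concentration required for 50% inhibition of growth. TGI denotes the concentration required for complete inhibition of growth.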

Columns and labels:
Test in all cases: NCI-60 cell line screen, 48 h
NCI-H23 lung = system: NCI-H23 lung
NCI-H460 lung = system: NCI-H460 lung
NCI-H522 lung = system: NCI-H522 lung
NCI/ADR-RES ovarian = system: NCI/ADR-RES ovarian
OVCAR-3 ovarian = system: OVCAR-3 ovarian
OVCAR-4 ovarian = system: OVCAR-4 ovarian
OVCAR-5 ovarian = system: OVCAR-5 ovarian
OVCAR-8 ovarian = system: OVCAR-8 ovarian
PC-3 prostate = system: PC-3 prostate
RPMI-8226 leukemia = system: RPMI-8226 leukemia
RXF 393 renal = system: RXF 393 renal
SF-268 CNS = system: SF-268 CNS
SF-295 CNS = system: SF-295 CNS
SF-539 CNS = system: SF-539 CNS
SK-MEL-2 melanoma = system: SK-MEL-2 melanoma
SK-MEL-28 melanoma = system: SK-MEL-28 melanoma
SK-MEL-5 melanoma = system: SK-MEL-5 melanoma
SK-OV-3 ovarian = system: SK-OV-3 ovarian
SN12C renal = system: SN12C renal
SNB-19 CNS = system: SNB-19 CNS
SNB-75 CNS = system: SNB-75 CNS
SR leukemia = system: SR leukemia
SW-620 colon = system: SW-620 colon
T-47D breast = system: T-47D breast
TK-10 renal = system: TK-10 renal
U251 CNS = system: U251 CNS
UACC-257 melanoma = system: UACC-257 melanoma
UACC-62 melanoma = system: UACC-62 melanoma
UO-31 renal = system: UO-31 renal

With `CC(C)(C)c1ccc([I+]c2ccc(C(C)(C)C)cc2)cc1` the TGI (NCI-H23 lung) was 7.57 µM, the GI50 (NCI-H460 lung) was 1.66 µM and the TGI (NCI-H460 lung) was 4.16 µM. For the same compound, the GI50 (NCI-H522 lung) was 1.39 µM, the TGI (NCI-H522 lung) was 4.8 µM and the GI50 (NCI/ADR-RES ovarian) was 21.5 µM. For the same compound, the TGI (NCI/ADR-RES ovarian) was 89.5 µM, the GI50 (OVCAR-3 ovarian) was 1.44 µM and the TGI (OVCAR-3 ovarian) was 6.87 µM. The GI50 (OVCAR-4 ovarian) was 0.658 µM, the TGI (OVCAR-4 ovarian) was 11 µM and the GI50 (OVCAR-5 ovarian) was 3.24 µM. The TGI (OVCAR-5 ovarian) was 12.9 µM, the GI50 (OVCAR-8 ovarian) was 1.44 µM and the TGI (OVCAR-8 ovarian) was 3.72 µM. For the same compound, the GI50 (PC-3 prostate) was 1.17 µM, the TGI (PC-3 prostate) was 6.05 µM and the GI50 (RPMI-8226 leukemia) was 0.389 µM. The TGI (RPMI-8226 leukemia) was 1.99 µM, the GI50 (RXF 393 renal) was 1.99 µM and the TGI (RXF 393 renal) was 5.52 µM. The GI50 (SF-268 CNS) was 1.93 µM, the TGI (SF-268 CNS) was 7.53 µM and the GI50 (SF-295 CNS) was 2.22 µM. The TGI (SF-295 CNS) was 5.28 µM, the GI50 (SF-539 CNS) was 2.08 µM and the TGI (SF-539 CNS) was 10.2 µM. For the same compound, the GI50 (SK-MEL-2 melanoma) was 1.51 µM, the TGI (SK-MEL-2 melanoma) was 3.86 µM and the GI50 (SK-MEL-28 melanoma) was 1.11 µM. It also gave a TGI (SK-MEL-28 melanoma) of 3.14 µM, a GI50 (SK-MEL-5 melanoma) of 0.348 µM and a TGI (SK-MEL-5 melanoma) of 1.19 µM. For the same compound, the GI50 (SK-OV-3 ovarian) was 2.31 µM, the TGI (SK-OV-3 ovarian) was 6.75 µM and the GI50 (SN12C renal) was 1.99 µM. For the same compound, the TGI (SN12C renal) was 5.21 µM, the GI50 (SNB-19 CNS) was 1.11 µM and the TGI (SNB-19 CNS) was 3.24 µM. The GI50 (SNB-75 CNS) was 1.44 µM, the TGI (SNB-75 CNS) was 6.1 µM and the GI50 (SR leukemia) was 0.935 µM. For the same compound, the TGI (SR leukemia) was 3.15 µM, the GI50 (SW-620 colon) was 1.56 µM and the TGI (SW-620 colon) was 10.7 µM. For the same compound, the GI50 (T-47D breast) was 0.745 µM, the TGI (T-47D breast) was 5.67 µM and the GI50 (TK-10 renal) was 2.62 µM. For the same compound, the TGI (TK-10 renal) was 9.75 µM, the GI50 (U251 CNS) was 1.47 µM and the TGI (U251 CNS) was 3.59 µM. For the same compound, the GI50 (UACC-257 melanoma) was 0.595 µM, the TGI (UACC-257 melanoma) was 2.54 µM and the GI50 (UACC-62 melanoma) was 0.69 µM. For the same compound, the TGI (UACC-62 melanoma) was 2.31 µM, the GI50 (UO-31 renal) was 3.62 µM and the TGI (UO-31 renal) was 14.8 µM.
